From patent US20180140578A1, “METHODS AND COMPOSITIONS FOR THE DIAGNOSIS AND SELECTIVE TREATMENT OF CANCER” (Board of Regents of the University of Texas System, priority 2016, published 2018)

Legend:
DCAF15 and RBM39Δ150 [1] = biological target: T1, DCAF15 and RBM39Δ150 (Homo sapiens, UniProt Q14498+Q66K64); assay: Mass spec quantification of indisulam in RBM39 DCAF15 complex; format: binding; conditions: DCAF15 and wild type RBM39Δ150; 10 μM indisulam
T1 construct: Full-length cDNAs encoding CUL4A, CUL4B, DCAF15, and DDB1 were cloned into pLVX IRES Puro; made in house; host or cells: RBM39Δ150: Sf9 (baculovirus); DCAF15-3xFLAG: anti-FLAG beads from HCT-116 or 293T cells stably expressing it
T1 sequence (Q66K64 whole entry, stated change not applied): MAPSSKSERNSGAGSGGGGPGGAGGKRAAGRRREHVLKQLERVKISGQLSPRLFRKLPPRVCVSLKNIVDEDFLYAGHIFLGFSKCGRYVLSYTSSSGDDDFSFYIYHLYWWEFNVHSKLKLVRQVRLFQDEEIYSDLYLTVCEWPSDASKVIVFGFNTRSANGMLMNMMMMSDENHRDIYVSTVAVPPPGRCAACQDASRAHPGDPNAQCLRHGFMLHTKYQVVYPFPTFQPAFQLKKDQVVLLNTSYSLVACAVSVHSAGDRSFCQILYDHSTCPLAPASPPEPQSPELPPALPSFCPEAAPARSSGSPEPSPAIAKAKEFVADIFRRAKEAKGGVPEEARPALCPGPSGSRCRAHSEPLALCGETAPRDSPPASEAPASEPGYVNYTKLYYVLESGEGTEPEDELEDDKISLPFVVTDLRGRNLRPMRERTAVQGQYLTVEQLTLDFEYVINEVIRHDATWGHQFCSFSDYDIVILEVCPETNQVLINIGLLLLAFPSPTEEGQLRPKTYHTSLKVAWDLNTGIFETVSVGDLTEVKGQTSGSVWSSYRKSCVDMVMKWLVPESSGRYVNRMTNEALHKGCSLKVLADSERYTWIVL
T1 sequence (Q14498 151-530, stated change not applied): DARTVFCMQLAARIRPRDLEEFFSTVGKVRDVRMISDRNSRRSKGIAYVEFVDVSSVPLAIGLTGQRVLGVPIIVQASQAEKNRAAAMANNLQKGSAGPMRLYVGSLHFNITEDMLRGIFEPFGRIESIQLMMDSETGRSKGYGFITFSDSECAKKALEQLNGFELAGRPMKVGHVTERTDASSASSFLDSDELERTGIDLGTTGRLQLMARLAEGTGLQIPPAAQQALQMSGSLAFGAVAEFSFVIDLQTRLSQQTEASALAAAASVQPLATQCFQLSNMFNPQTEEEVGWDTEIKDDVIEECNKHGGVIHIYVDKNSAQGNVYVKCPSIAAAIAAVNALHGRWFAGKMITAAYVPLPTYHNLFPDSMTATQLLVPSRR
T1 sequence (Q16531 2-1140 partner): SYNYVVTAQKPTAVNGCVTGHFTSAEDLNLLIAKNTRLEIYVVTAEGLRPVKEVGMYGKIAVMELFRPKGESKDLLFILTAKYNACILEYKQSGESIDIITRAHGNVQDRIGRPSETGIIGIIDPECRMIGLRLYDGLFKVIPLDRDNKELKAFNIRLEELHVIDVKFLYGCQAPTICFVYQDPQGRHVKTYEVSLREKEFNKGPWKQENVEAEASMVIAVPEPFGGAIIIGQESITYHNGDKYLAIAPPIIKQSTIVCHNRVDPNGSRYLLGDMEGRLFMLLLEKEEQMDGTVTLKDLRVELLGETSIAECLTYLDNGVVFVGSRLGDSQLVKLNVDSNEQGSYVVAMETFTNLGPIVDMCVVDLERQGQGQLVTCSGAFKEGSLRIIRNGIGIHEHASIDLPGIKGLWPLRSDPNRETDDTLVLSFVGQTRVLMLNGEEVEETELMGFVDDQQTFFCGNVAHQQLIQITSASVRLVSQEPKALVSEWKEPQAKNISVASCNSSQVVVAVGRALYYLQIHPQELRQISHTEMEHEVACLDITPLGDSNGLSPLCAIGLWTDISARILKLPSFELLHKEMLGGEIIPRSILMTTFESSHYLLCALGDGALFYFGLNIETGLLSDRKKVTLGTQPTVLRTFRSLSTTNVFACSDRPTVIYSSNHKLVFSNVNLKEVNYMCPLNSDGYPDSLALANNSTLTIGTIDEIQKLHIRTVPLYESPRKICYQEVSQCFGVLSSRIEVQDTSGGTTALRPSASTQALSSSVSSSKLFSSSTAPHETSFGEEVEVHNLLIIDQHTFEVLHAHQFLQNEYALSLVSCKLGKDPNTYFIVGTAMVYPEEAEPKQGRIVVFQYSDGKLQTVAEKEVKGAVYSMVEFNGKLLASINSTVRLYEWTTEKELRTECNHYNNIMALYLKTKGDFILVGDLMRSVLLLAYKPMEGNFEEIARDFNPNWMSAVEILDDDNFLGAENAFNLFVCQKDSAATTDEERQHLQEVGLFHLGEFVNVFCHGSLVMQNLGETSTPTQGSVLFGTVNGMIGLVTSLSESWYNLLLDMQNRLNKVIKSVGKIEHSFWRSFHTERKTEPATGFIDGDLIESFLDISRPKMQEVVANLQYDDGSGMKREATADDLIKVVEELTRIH
Source text: (§1) RBM39-3xFLAG was immunopurified from HCT-116 cells expressing RBM39-3xFLAG (endogenous tag) using the cryomill procedure. DCAF15-3xFLAG was purified from 293T cells stably expressing DCAF15-3xFLAG through lentiviral transduction. […] Afterwards, beads were washed twice with 1×PBS, 0.1% NP40 and twice with 1×PBS. […] The tolbutamide internal standard (IS) was detected using the transition 269.1 to 169.9 (negative mode; M-H^−). […] The limit of quantitation (lowest quantifiable point on the standard curve with accuracy within 20% upon back calculation and at least 3-fold above background) for this method was 50 pg/ml.

DCAF15 and RBM39Δ150 [2] = biological target: T2, DCAF15 and RBM39Δ150 (Homo sapiens, UniProt Q14498+Q66K64, P272S); assay: as above; format: binding; conditions: DCAF15 and RBM39Δ150 P272S; 10 μM indisulam
T2 construct: Full-length cDNAs encoding CUL4A, CUL4B, DCAF15, and DDB1 were cloned into pLVX IRES Puro; made in house; host or cells: RBM39Δ150: Sf9 (baculovirus); DCAF15-3xFLAG: anti-FLAG beads from HCT-116 or 293T cells stably expressing it
T2 sequence (Q66K64 whole entry, stated change not applied): as the sequence (Q66K64 whole entry, stated change not applied) above
T2 sequence (Q14498 151-530 P272S, stated change not applied): as the sequence (Q14498 151-530, stated change not applied) above, with P122S counted along it
T2 sequence (Q16531 2-1140 partner, stated change not applied): as the sequence (Q16531 2-1140 partner) above
Source text: as §1

DCAF15 and RBM39Δ150 [3] = assay: as above; format: binding, human
Source text: as §1

HCC78 and H1373 = assay: 3 day viability assay, U2AF1 mutant lung cancer cell lines; format: cell-based, human
Source text: HCC78 and H1373 non-small cell lung cancer cell lines harbor a heterozygous mutations (C to T) in U2AF1 leading to a Serine to Phenylalanine mutation at position 34. FIG. 19 depicts Sanger sequencing of a RT-PCR product from both cell lines. […] Thus, mutations in splicing factor U2AF1 can be used as a biomarker for treating cancer, in a DCAF15 independent manner or together with the DCAF15 biomarker.

[4] = biological target: T3, DDB1:DCAF15-GST and RBM39Δ150 (Homo sapiens, UniProt Q14498+Q66K64); assay: Indisulam dependent co-fractionation of DCAF15-DDB1 and RBM39 (size exclusion chromatography); format: binding; conditions: 10 μM indisulam
T3 construct: made in house; host or cells: Sf9 (baculovirus)
T3 sequence (Q66K64 whole entry, stated change not applied): as the sequence (Q66K64 whole entry, stated change not applied) above
T3 sequence (Q14498 151-530 limits assumed, stated change not applied): as the sequence (Q14498 151-530, stated change not applied) above
T3 sequence (Q16531 whole entry partner): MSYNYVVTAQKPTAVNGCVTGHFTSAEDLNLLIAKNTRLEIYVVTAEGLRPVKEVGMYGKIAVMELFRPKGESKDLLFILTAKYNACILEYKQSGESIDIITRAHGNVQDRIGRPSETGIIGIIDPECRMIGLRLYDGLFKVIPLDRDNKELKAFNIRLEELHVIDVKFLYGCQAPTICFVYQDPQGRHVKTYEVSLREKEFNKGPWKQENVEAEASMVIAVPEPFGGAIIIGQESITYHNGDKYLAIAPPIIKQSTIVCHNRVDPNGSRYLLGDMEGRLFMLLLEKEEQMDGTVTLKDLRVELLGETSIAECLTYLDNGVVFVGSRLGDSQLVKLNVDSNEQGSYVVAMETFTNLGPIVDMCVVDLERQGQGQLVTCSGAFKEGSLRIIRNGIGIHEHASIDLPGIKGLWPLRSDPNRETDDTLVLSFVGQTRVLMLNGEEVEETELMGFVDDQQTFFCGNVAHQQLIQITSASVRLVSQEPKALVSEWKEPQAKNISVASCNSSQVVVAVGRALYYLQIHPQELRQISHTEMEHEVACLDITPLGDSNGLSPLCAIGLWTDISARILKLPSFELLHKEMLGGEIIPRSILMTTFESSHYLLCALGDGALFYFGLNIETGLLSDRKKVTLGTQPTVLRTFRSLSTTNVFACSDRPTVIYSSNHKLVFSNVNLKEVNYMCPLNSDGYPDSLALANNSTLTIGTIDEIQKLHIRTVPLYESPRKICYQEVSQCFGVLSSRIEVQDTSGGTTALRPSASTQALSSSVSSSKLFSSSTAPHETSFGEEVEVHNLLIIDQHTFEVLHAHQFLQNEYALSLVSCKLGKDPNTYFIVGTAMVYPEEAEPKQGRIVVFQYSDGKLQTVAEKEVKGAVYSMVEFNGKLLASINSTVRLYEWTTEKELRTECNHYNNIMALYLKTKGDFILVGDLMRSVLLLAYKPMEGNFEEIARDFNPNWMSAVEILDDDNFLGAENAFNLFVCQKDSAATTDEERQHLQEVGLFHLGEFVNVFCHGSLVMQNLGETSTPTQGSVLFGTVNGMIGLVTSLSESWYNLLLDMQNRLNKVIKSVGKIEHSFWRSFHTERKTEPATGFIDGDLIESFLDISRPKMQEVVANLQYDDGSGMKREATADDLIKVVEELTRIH
Description: RBM39 lacking the first 150 amino acids after the start codon (RBM39Δ150) was cloned into the pFastBac1 (Life Technologies) vector. Site-directed Mutagenesis of RBM39 was performed using Q5 site-directed mutagenesis kit (NEB). DCAF15-GST (C-terminal GST tag) and DDB1 were also cloned into pFastBac1. The production of baculovirus was carried out following vendor's instructions. Protein was expressed in SF9 cells by infection with each protein specific baculovirus, and cells were harvested 48 hr later and frozen in liquid nitrogen. For purification of RBM39Δ150, frozen cells were pulverized by cryomill and resuspended in lysis buffer (40 mM Tris, pH 7.5, 225 mM NaCl, 1× […] Protease inhibitor). The lysate was passed through a 22 gauge needle 2 times followed by ultracentrifugation at 25000 rpm for 30 min. Clarified lysate was incubated with Ni-NTA agarose (Qiagen) for 30 min with rotation at 4° C. Resin and bound protein were washed with wash buffer 1 (40 mM Tris, pH 7.5, 225 mM NaCl) followed by wash buffer 2 (40 mM Tris, pH 7.5, 20 mM imidazole, 225 mM NaCl). Proteins were eluted with elution buffer (40 mM Tris, pH 7.5, 300 mM imidazole, 225 mM NaCl) and concentrated to 0.5 ml. […]
The mixture was incubated for 1 hour with rotation at 4° C. […] 1 ml fractions were collected and analyzed by SDS-PAGE and coomassie blue staining.

[5] = biological target: T4, RBM39 G268V-3xFLAG with CUL4 complex (Homo sapiens, UniProt Q14498+Q66K64, G268V); assay: Co-immunoprecipitation of RBM39 G268V-3xFLAG from treated cells; format: cell-based; conditions: in the presence of indisulam
T4 construct: lysate derived from parental cells, RBM39-3xFLAG cells, or RBM39 G268V-3xFLAG cells; endogenous in cells; host or cells: HCT-116 RBM39 G268V-3xFLAG cells (treated cells in A91; lysates in A95)
Description: Anti-Flag M2 antibody (Sigma-Aldrich) was coupled to Dynabeads M-270 epoxy beads (Life Technologies) at the ratio of 10 μg of antibody/mg beads. […] Frozen cells were then pulverized in the a cryomill (Retsch) with one 25 mm steel ball and five cycles of three min at 25 Hz with intermittent cooling in liquid nitrogen. […] The lysates were centrifuged at 8000 g for 5 min at 4° C. 12 mg of conjugated Anti-Flag magnetic beads were mixed with clarified lysates for 5 min at 4° C. on a rotating platform, followed by three washes with IP buffer. Bound proteins were eluted with 1 mg/ml 3xFLAG peptide, followed by SDS-PAGE on a 10% Bis Tris gel. After brief electrophoresis, bands containing all the proteins were cut with clean blades. For western blotting of co-immunoprecipitated proteins, anti-DDA1 (ProteinTech, 14995-1-AP, 1:1000), anti-DDB1 (Abcam, ab109027, 1;10000), anti-CUL4A (Cell Signaling, 2699, 1:1000), anti-CUL4B (ProteinTech, 12916-1-AP, 1:1000) were used.

human cancer cell lines = conditions: cited from earlier work

## NS(=O)(=O)c1ccc(S(=O)(=O)Nc2cccc3c(Cl)c[nH]c23)cc1 [Indisulam, indisulam]
DCAF15 and RBM39Δ150 [1]
  amount of indisulam in complex (LC-MS): highest levels of indisulam
DCAF15 and RBM39Δ150 [2]
  amount of indisulam in complex (LC-MS): lower levels of indisulam
DCAF15 and RBM39Δ150 [3]; DCAF15 and M265L or E271Q variants of RBM39Δ150
  amount of indisulam in complex (LC-MS): no indisulam was detected
DCAF15 and RBM39Δ150 [3]; either DCAF15 or RBM39 alone
  amount of indisulam (LC-MS): no indisulam was identified
HCC78 and H1373
  sensitivity of cancer cell lines harboring a mutation in U2AF1: sensitive
[4]
  elution of RBM39Δ150 with DDB1:DCAF15-GST peak: co-elutes
[5]
  recruitment of RBM39 G268V to the CUL4 complex: not recruited
Human cancer cell lines
  effect on cell cycle: cell cycle arrest in the G1 phase followed by cell death
